Tested on: yeast tRNA^Phe (RNA, tRNA) GCGGAUUUAGCUCAGUUGGGAGAGCGCCAGACUGAAGAUCUGGAGGUCCUGUGUUCGAUCCACAGAAUUCGCACCA
Experiment: inhibition of lead(II)-induced cleavage, gel
Conditions: 10 mM Mg2+, 1 mM NH4+, 0.5 mM Pb2+; 50% inhibition of Pb2+ cleavage; 50 mM Tris-HCl pH 7.5; RNA 2.4 μM

**Q.** For `Cc1cc2nc3ccc(N(C)C)cc3[s+]c2cc1N`, which Ki is on record?
**A.** 70 ± 20 µM
